Drawing on patent publication US20100022534A1, “2-BENZIMIDAZOLYL-6-MORPHOLINO-4- (AZETIDINE, PYRROLIDINE, PIPERIDINE OR AZEPINE) PYRIMIDINE DERIVATIVES AS PI3K AND MTOR INHIBITORS FOR THE TREATMENT OF PROLIFERATIVE DISORDERS” (AstraZeneca, priority 2006, published 2010), this text covers IC50 for two compounds.

The target of one assay is T1, p110α Type Ia human PI3K (Homo sapiens, UniProt P42336).
T1 construct: full length DNA of each of the p110α, p110β and p110δ Type Ia human PI3K p110 isoforms; 6-His; made in house
Put plainly: In vitro PI3K enzyme assay (AlphaScreen), Test (a). The settings on record: read-out: IC50 versus p110α Type Ia human PI3K. It counts as biochemical. An excerpt: (a) In Vitro PI3K Enzyme Assay
The assay used AlphaScreen technology (Gray et al., Analytical Biochemistry, 2003, 313: 234-245) to determine the ability of test compounds to inhibit phosphorylation by recombinant Type I PI3K enzymes of the lipid PI(4,5)P2.
DNA fragments encoding human PI3K catalytic and regulatory subunits were isolated from cDNA libraries using standard molecular biology and PCR cloning techniques. The selected DNA fragments were used to generate baculovirus expression vectors. In particular, full length DNA of each of the p110α, p110β and p110δ Type Ia human PI3K p110 isoforms (EMBL Accession Nos. HSU79143, S67334, Y10055 for p110α, p110β and p110δ respectively) were sub-cloned into a pDEST10 vector (Invitrogen Limited, Fountain Drive, Paisley, UK). The vector is a Gateway-adapted version of Fastbac1 containing a 6-His epitope tag. […]
Biotinylated-DiC8-PI(3,4,5)P3 (50 nM; Cell Signals Inc., Catalogue No. 107), recombinant purified GST-Grp1 PH protein (2.5 μM) and AlphaScreen Anti-GST donor and acceptor beads (100 ng; Packard Bioscience Limited, Station Road, Pangbourne, Berkshire, UK, Catalogue No. 6760603M) were added and the assay plates were left for about 5 to 20 hours at room temperature in the dark. The resultant signals arising from laser light excitation at 680 nm were read using a Packard AlphaQuest instrument. […]

The test system of assay [1] is phosphorylation of Serine 473 in Akt. Put plainly: In vitro phospho-Ser473 Akt assay in MDA-MB-468 cells, Test (c). It counts as cell-based. Particulars: Homo sapiens, read-out: IC50, inhibition of phosphorylation of Serine 473 in Akt. The method, then: (c) In Vitro Phospho-Ser473 Akt Assay
This assay determines the ability of test compounds to inhibit phosphorylation of Serine 473 in Akt as assessed using Acumen Explorer technology (TTP LabTech Limited, Royston, Herts, SG8 6EE, UK), a plate reader that can be used to rapidly quantitate features of images generated by laser-scanning.
A MDA-MB-468 human breast adenocarcinoma cell line (LGC Promochem, Teddington, Middlesex, UK, Catalogue No. HTB-132) was routinely maintained at 37° C. with 5% CO2 up to a confluency of 70-90% in DMEM containing 10% FCS and 1% L-glutamine.
For the assay, the cells were detached from the culture flask using ‘Accutase’ (Innovative Cell Technologies Inc., San Diego, Calif., USA; Catalogue No. AT104) using standard tissue culture methods and resuspended in media to give 5.5×10^4 cells per ml. Aliquots (90 μl) were seeded into each of the inner 60 wells of a black ‘Costar’ 96-well plate (Corning Inc., NY, USA; Catalogue No. 3904) to give a density of ˜5000 cells per well. Aliquots (90 μl) of culture media were placed in the outer wells to prevent edge effects. [An alternative cell handling procedure involved the maintenance of the cells in a ‘SelecT’ robotic device (The Automation Partnership, Royston, Herts SG8 5WY, UK). Cells were resuspended in media to give 5×10^4 cells per ml. […]

T1 sequence (P42336 whole entry, canonical isoform): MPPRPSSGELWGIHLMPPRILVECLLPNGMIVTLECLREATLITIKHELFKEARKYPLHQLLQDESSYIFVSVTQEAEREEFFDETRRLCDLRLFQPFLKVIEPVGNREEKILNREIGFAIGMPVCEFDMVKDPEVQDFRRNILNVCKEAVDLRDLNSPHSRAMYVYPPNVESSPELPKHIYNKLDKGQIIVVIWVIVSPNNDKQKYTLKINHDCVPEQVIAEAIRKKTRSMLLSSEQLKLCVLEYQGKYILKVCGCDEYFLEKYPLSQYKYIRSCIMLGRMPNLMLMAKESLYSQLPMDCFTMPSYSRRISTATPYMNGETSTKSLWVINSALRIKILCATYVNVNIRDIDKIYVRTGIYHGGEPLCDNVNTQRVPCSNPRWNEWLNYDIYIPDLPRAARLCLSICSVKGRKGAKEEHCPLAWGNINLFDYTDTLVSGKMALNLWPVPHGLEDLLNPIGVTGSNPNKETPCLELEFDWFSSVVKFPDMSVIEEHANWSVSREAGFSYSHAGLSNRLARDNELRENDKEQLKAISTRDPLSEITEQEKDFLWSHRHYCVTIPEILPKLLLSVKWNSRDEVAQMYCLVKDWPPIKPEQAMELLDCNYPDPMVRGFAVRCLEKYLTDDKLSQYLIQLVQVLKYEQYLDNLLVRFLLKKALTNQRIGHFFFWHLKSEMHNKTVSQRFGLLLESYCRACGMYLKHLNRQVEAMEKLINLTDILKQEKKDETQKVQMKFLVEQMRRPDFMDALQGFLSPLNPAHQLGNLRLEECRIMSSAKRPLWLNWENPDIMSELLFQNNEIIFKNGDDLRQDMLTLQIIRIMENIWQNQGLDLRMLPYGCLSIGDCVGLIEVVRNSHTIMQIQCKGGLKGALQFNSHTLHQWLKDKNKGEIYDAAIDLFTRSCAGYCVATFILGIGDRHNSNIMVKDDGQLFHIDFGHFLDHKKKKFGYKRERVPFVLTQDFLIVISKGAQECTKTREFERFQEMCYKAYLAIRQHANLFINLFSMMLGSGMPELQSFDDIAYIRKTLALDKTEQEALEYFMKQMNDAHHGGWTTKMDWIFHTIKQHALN
T1 sequence (P27986 whole entry partner, canonical isoform): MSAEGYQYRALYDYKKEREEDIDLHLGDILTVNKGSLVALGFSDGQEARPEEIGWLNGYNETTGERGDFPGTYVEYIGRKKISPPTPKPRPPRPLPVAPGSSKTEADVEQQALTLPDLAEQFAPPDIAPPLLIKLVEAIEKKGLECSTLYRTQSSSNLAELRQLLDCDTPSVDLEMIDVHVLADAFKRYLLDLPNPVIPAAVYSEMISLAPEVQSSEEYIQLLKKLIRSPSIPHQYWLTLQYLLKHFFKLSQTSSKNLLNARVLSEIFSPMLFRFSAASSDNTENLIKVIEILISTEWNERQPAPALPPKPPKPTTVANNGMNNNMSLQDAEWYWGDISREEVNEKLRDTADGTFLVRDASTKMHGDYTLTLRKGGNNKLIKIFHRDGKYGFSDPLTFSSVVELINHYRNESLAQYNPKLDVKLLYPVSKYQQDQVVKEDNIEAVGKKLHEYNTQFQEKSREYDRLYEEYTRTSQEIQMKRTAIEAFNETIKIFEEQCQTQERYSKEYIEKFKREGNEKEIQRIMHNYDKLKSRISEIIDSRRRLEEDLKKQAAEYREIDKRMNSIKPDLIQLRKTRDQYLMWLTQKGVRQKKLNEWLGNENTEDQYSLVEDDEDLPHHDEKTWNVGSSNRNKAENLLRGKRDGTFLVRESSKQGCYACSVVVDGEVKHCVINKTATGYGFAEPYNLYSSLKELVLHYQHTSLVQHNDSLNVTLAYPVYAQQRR

Turning to `O=C(NC1CCN(c2cc(N3CCOCC3)nc(-n3c(C(F)F)nc4ccccc43)n2)CC1)[C@@H]1CCCN1` [Example 3, 2-(2-difluoromethylbenzimidazol-1-yl)-6-morpholino-4-(4-prolylaminopiperidin-1-yl)pyrimidine], the IC50 is approximately 400 nM at p110α Type Ia human PI3K and approximately 100 nM in assay [1].
The matching figures for `NCCC1CCN(c2cc(N3CCOCC3)nc(-n3c(C(F)F)nc4ccccc43)n2)CC1` [Example 1, 4-[4-(2-aminoethyl)piperidin-1-yl]-2-(2-difluoromethylbenzimidazol-1-yl)-6-morpholinopyrimidine]: approximately 200 nM and approximately 10 nM.
